Data reported in ChEMBL document CHEMBL4627384, “l-Thyroxin and the Nonclassical Thyroid Hormone TETRAC Are Potent Activators of PPARγ” (J Med Chem, 2020).
Activity calls are given as the source filed them. The calls are words filed in the database; no cut-off is given here.

Key:
[1] = molecular target: T1, Peroxisome proliferator-activated receptor gamma (Homo sapiens) (UniProt P37231); assay: Agonist activity at PPARgamma in human HepG2 cells with THRA knockdown assessed as induction of CD36 expression at 30 uM incubated for 8 hrs in by Western blot analysis; type: cell-based
T1 sequence (whole entry): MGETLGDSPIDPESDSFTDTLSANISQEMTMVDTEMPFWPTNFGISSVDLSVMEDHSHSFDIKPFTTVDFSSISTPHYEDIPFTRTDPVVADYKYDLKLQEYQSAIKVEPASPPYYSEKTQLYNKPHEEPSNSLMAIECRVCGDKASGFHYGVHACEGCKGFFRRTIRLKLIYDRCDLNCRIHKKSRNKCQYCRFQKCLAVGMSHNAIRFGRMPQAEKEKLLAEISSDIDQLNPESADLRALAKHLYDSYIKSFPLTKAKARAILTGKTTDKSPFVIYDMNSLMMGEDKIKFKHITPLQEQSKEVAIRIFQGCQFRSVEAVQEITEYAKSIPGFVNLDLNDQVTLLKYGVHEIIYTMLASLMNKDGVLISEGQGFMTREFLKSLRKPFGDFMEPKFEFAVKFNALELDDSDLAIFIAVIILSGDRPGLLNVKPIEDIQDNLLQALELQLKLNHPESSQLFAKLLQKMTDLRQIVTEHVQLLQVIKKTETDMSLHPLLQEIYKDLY

[2] = molecular target: T1, Peroxisome proliferator-activated receptor gamma (Homo sapiens); assay: Agonist activity at PPARgamma in human HepG2 cells with THRB knockdown assessed as induction of CD36 expression at 30 uM incubated for 8 hrs in by Western blot analysis; type: cell-based
[3] = molecular target: T1, Peroxisome proliferator-activated receptor gamma (Homo sapiens); assay: Agonist activity at N-terminal GFP-fused PPARgamma LBD (unknown origin) assessed as biotin-labeled CBP recruitment incubated for 2 hrs by HT-FRET assay
[4] = molecular target: T2, Peroxisome proliferator-activated receptor gamma (Mus musculus) (UniProt P37238); assay: Agonist activity at PPARgamma in mouse 3T3L1 assessed as induction of adipocytes differentiation by Oil Red O staining based assay; type: cell-based; conditions: 3T3-L1
T2 sequence (whole entry): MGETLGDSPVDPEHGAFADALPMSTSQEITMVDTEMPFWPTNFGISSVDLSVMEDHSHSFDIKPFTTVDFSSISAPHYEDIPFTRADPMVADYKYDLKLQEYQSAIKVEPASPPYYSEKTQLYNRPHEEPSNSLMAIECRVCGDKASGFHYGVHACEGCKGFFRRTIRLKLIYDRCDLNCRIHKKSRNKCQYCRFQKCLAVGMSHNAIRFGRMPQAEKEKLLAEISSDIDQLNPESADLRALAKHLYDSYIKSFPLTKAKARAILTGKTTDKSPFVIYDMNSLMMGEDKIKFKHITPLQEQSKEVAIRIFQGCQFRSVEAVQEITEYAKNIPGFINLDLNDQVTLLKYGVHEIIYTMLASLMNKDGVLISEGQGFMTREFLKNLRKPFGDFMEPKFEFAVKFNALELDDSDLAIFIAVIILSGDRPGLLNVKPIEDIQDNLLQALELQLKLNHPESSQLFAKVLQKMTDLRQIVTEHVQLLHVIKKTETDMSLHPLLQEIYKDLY

[5] = molecular target: T2, Peroxisome proliferator-activated receptor gamma (Mus musculus); assay: Agonist activity at PPARgamma in mouse 3T3L1 adipocytes assessed as induction of CD36 mRNA expression at 1 uM by qRT-PCR analysis; type: cell-based; conditions: 3T3-L1
[6] = molecular target: T2, Peroxisome proliferator-activated receptor gamma (Mus musculus); assay: Agonist activity at PPARgamma in mouse 3T3L1 adipocytes assessed as induction of FABP4 mRNA expression at 1 uM by qRT-PCR analysis; type: cell-based; conditions: 3T3-L1
[7] = molecular target: T2, Peroxisome proliferator-activated receptor gamma (Mus musculus); assay: Agonist activity at PPARgamma in mouse 3T3L1 adipocytes assessed as induction of GLUT4 mRNA expression at 1 uM by qRT-PCR analysis; type: cell-based; conditions: 3T3-L1
[8] = molecular target: T1, Peroxisome proliferator-activated receptor gamma (Homo sapiens); assay: Agonist activity at PPARgamma in human HepG2 cells assessed as induction of CD36 mRNA expression at 0.03 to 1 uM incubated for 8 hrs by qPCR analysis; type: cell-based
[9] = molecular target: T1, Peroxisome proliferator-activated receptor gamma (Homo sapiens); assay: Agonist activity at PPARgamma in human HepG2 cells assessed as induction of CD36 mRNA expression at 1 uM incubated for 8 hrs in presence of PPARgamma antagonist GW9662 by qPCR analysis; type: cell-based
[10] = molecular target: T3, Thyroid hormone receptor alpha (Homo sapiens, UniProt P10827); assay: Agonist activity at THRalpha (unknown origin) incubated for 14 to 16 hrs by dual glo luciferase reporter gene assay
T3 sequence (P10827 whole entry): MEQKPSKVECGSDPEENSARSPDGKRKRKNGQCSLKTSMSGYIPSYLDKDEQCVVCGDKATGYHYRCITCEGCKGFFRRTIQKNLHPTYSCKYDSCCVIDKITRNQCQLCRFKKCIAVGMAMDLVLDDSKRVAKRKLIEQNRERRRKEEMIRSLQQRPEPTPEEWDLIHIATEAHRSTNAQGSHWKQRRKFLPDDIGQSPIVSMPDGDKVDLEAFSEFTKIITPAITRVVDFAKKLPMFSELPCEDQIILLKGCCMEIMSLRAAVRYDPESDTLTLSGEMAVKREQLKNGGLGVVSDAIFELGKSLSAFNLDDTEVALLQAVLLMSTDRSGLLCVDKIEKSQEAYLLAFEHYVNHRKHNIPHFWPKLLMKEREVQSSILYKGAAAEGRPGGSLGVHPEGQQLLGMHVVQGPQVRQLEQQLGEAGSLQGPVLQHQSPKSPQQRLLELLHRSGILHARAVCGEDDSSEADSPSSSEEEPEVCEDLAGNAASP

[11] = molecular target: T4, Thyroid hormone receptor beta (Homo sapiens, UniProt P10828); assay: Agonist activity at THRbeta (unknown origin) incubated for 14 to 16 hrs by dual glo luciferase reporter gene assay
T4 sequence (P10828 whole entry): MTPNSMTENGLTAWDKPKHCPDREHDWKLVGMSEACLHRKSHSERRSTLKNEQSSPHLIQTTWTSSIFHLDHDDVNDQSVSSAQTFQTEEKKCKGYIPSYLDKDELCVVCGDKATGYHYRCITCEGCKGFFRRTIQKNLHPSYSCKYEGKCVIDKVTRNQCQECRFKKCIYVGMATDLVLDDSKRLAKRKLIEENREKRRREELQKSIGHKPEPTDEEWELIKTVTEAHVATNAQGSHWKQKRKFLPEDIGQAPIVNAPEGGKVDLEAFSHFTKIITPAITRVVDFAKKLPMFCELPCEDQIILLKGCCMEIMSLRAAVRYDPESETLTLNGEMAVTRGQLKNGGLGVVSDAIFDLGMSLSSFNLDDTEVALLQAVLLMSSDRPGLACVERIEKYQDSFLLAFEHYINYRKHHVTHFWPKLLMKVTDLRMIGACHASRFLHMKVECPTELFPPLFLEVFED

[12] = molecular target: Luciferin 4-monooxygenase (Photinus pyralis) (UniProt P08659); assay: Activation of firefly luciferase expressed in HEK293T cells at 0.1 uM incubated for 14 to 16 hrs by reporter gene assay; type: cell-based; conditions: HEK-293T
Chain of Luciferin 4-monooxygenase (Photinus pyralis) (P08659 whole entry): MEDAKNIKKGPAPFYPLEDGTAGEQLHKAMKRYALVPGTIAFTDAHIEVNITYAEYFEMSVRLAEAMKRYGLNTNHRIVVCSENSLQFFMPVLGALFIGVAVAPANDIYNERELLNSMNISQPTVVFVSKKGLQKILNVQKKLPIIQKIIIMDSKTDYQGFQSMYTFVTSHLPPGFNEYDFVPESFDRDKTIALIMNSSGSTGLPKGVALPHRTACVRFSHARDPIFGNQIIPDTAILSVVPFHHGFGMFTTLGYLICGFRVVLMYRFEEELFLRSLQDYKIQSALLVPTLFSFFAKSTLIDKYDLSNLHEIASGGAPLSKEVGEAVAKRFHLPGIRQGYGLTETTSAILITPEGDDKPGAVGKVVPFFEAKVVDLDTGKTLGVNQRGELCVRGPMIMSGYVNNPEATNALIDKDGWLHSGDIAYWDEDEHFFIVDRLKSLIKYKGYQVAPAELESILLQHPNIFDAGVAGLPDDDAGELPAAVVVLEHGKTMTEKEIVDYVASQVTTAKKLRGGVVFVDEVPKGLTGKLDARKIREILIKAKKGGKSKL

HEK-293T = assay: Activation of renilla luciferase expressed in HEK293T cells at 0.1 uM incubated for 14 to 16 hrs by reporter gene assay; type: cell-based; conditions: Renilla reniformis

| SMILES | Activity [1] | Activity [2] | Activity [3] | Activity [4] | Activity [5] | Activity [6] | Activity [7] | Activity [8] | Activity [9] | EC50 [10] [µM] | EC50 [11] [µM] | Activity [12] | Activity (HEK-293T) |
| --- | --- | --- | --- | --- | --- | --- | --- | --- | --- | --- | --- | --- | --- |
| N[C@@H](Cc1cc(I)c(Oc2cc(I)c(O)c(I)c2)c(I)c1)C(=O)O [LEVOTHYROXINE] | Active | Active | – | – | – | – | – | – | – | – | – | – | – |
| O=C(O)Cc1cc(I)c(Oc2cc(I)c(O)c(I)c2)c(I)c1 [TETRAC] | – | – | Active | Dose-dependent effect | Active | Active | Active | Active | inactive | 0.02 | 0.02 | inactive | inactive |
